Where two headings read alike, the source gives them in different places.
Columns and labels:
HDAC6 = molecular target: T1, HDAC6 (Homo sapiens, UniProt Q9UBN7); assay: Fluorimetric measurement of HDAC6 activity (FLUOR DE LYS kit); format: biochemical
T1 construct: purchased Enzo Life Sciences
T1 sequence (Q9UBN7 1-1215): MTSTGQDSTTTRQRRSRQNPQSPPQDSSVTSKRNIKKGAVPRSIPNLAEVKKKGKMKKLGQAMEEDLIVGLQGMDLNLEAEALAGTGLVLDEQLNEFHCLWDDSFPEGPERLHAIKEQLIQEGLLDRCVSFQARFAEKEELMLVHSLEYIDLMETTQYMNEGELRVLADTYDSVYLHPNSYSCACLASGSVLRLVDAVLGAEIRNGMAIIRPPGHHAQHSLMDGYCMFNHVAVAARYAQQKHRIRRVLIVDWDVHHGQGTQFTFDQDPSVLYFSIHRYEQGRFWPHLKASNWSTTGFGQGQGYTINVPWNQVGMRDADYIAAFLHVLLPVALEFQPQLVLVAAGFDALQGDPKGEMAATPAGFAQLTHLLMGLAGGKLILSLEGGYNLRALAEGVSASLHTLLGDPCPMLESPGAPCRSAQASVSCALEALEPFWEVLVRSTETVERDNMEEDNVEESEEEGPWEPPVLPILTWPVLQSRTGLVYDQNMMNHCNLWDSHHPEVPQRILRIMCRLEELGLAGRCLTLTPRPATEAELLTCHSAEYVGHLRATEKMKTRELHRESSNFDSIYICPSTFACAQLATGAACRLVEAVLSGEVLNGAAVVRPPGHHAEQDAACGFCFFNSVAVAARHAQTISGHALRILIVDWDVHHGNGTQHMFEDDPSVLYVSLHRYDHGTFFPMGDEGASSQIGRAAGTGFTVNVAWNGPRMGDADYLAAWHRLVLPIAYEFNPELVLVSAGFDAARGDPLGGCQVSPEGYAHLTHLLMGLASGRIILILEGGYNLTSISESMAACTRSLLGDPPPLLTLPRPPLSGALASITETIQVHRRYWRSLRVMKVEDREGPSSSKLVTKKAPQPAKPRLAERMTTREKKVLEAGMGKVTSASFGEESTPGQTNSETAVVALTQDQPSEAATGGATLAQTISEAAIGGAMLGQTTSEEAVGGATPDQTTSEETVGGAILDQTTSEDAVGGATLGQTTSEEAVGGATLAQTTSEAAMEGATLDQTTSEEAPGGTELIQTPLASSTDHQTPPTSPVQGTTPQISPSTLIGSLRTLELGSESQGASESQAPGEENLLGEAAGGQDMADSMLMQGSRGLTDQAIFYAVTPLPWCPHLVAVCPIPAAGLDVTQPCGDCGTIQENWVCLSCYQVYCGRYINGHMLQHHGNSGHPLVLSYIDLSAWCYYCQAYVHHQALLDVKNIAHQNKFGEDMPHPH

[1] = Oxygen radical absorbance capacity (ORAC); details: Trolox equivalent; compounds and Trolox 100 µM, AAPH 12 mM
Excerpt: (§1) DPPH is a stable chromogen radical, which is widely used to assess the antioxidant activity of biological objects, in particular when searching for potential therapeutic agents used to maintain the redox balance in the body and treat pathologies associated with the action of free radicals. In turn, the oxygen radical absorbance capacity (ORAC) analysis is based on the removal by potential antioxidants of peroxyl radicals generated by AAPH (2,2’-axobis-2-methyl-propanimidamide, dihydrochloride), preventing the degradation of the fluorescein probe.
The analysis of the absorption capacity of oxygen radicals was performed as described in [151], with some modifications. Trolox (Sigma Aldrich, St. Louis, MI, USA) was used as a standard antioxidant. The studied compounds were introduced into the holes of a 96-hole black tablet with a transparent bottom with Trolox (25 µL; the final concentration was 100 µM) and fluorescein (150 µL; the final concentration was 80 nM, Sigma Aldrich, St. Louis, MI, USA). The resulting mixture was shaken and incubated for 30 min at 37 °C. After a 30-min incubation period, a solution of 2,2’-azobis (2-amidinopropane) dihydrochloride (AAPH) (25 µL; final concentration of 12 mM, Sigma Aldrich, St. Louis, MI, USA) was quickly introduced into all wells of the tablet. The tablet was immediately placed in a multifunctional tablet analyzer Cytation™ 3 (BioTek Instruments, Inc., Winooski, VT, USA). The fluorescence intensity was recorded for 300 min at λex = 480 nm, λem = 520 nm with an interval of every 5 min. In the same experiment, calibration solutions for the reference antioxidant Trolox were used to confirm the validity of the use of this method (0, 6.25, 12.5, 25, 50 and 100 µM).

[2] = molecular target: T2, β-amyloid peptide 1-42 (Aβ1-42) (Homo sapiens, UniProt P05067); assay: Thioflavin T fluorescent analysis of Aβ1-42 aggregation; format: biochemical; details: 48 h, compounds 100 µM, Thioflavin T 10 µM, 48 h registration; read-out: prevention of the aggregation of Aβ1-42
T2 construct: the pathological form of β-amyloid peptide 1-42 (Sigma Aldrich); purchased Sigma Aldrich
T2 sequence (P05067 672-713 limits assumed): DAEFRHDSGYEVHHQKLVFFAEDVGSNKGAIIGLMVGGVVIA
Excerpt: The aggregation process of β-amyloid peptide 1-42 (Aβ1-42), caused by hydrophobic interactions of peptide monomers and, as a consequence, the formation of the most toxic polymorphic structure-oligomeric fragments of Aβ, was detected using the fluorescent dye Thioflavin T (Figure 4a). This method is the most widely used for selective staining and the identification of amyloid aggregates, which is confirmed by a large number of works. Fluorescence analysis using Thioflavin T made it possible to monitor the aggregation process of the pathological form of β-amyloid peptide 1-42 (Sigma Aldrich, St. Louis, MI, USA). The experimental protocol was carried out similarly to that described in [58] with some modifications. The registration of changes in the fluorescence of thioflavin T (10 µM, Sigma Aldrich, St. Louis, MI, USA) was performed on a multifunctional tablet analyzer Cytation™3 (BioTek Instruments, Inc., Winooski, VT, USA) at λex = 450 nm, λem = 480 nm. The fluorescence intensity of the solution without Aβ1-42 was subtracted from the fluorescence values of solutions containing protein, due to the need to subtract the background fluorescence.

Cell viability, MTT test = format: cell-based; details: human, SH-SY5Y neuroblastoma cells, 24-h exposure, read-out: IC50 cytotoxic action
Method: The culture of human neuroblastoma cells (defined as SH-SY5Y) was cultured in DMEM with the addition of embryonic bovine serum (10%), 2 mM glutamine (DiaM, Moscow, Russia) and penicillin-streptomycin (100 U/Ml–100 µg/mL, PanEco, Moscow, Russia) in conditions of 5% CO2 in the air at 37 °C. Upon reaching 80% confluence, cells in the amount of 1 × 10^4 were placed in 96-well transparent plates and incubated under the same conditions for 24 h. After the incubation time, the cells were exposed to a 24-h exposure to various concentrations of hydroxamic acids dissolved in dimethyl sulfoxide (range from 1 to 100 µM). An equivalent volume of solvent was used as a control (final DMSO content = 1%).
Cell survival analysis was performed using MTT test. To do this, 3-(4,5-dimethylthiazol-2-yl)-2,5-diphenyltetrazolium bromide (MTT, 5 mg/mL, DiaM, Moscow, Russia) was introduced into all wells and incubated at 37 °C for 2 h to restore metabolically active cells of the yellow tetrazolium salt MTT to purple formazane crystals. The resulting formazane was then re-suspended in 200 µL DMSO per well. The optical density was recorded using a multifunctional Cytation™3 flatbed analyzer (BioTek Instruments, Inc., Winooski, VT, USA) at λ = 530 nm.

[3] = DPPH radical scavenging activity; details: Trolox equivalent; compounds and Trolox 100 µM
Excerpt: as §1
The measurement of the antiradical activity of synthesized hydroxamic acids was carried out using the method described in [150]. The studied compounds were introduced into the wells of a 96-well black tablet (the final concentration was 100 microns), after which a freshly prepared solution of 2,2-diphenyl-1-picrylhydrazyl (Sigma Aldrich, St. Louis, Missouri, USA) was added. After the incubation time had elapsed, the DPPH radical-scavenging activity was measured using a multifunctional Cytation™3 tablet analyzer (BioTek Instruments, Inc., Winooski, VT, USA) at λ = 517 nm by the difference in the reduction of the DPPH radical peak between control samples containing an equivalent volume of solvent and samples with the substances under study.

[4] = Table 1, read-out: HDAC6-Inhibitory Effect, IC50

Row | SMILES | melting point [°C] | IC50 (HDAC6; [4]) [µM] | ORAC value (TE) [1] [TE] | inhibition at 100 µM [2] [%] | IC50 at 24 h (Cell viability, MTT test) [µM] | DPPH value (TE) [3] [TE] | IC50 (HDAC6; HDAC6, values as listed in Table S1 beside docking score, read-out: IC50) [µM]
1 | CC(C)c1ccc(CNC(=O)/C=C/c2ccc(C(=O)NO)cc2)cc1 [Compound 35b, (E)-N-hydroxy-4-(3-((4-isopropylbenzyl)amino)-3-oxoprop-1-en-1-yl)benzamide] | 187.4 to 189.7 | 8.23 ± 0.4 | 1.00 | 59.9 | > 100 | 0.50 | –
2 | C=C(C)[C@@H]1CC=C(CNC(=O)CCCCCCCC(=O)NO)CC1 [Compound 31, (S)-N1-hydroxy-N9-((4-(prop-1-en-2-yl)cyclohex-1-en-1-yl)methyl)nonanediamide] | 110.8 | 0.74 ± 0.02 | 0.82 | ≤ 40 | 89.4 ± 3.92 | 0.30 | –
3 | C=C(C)[C@@H]1CC=C(CNC(=O)c2ccc(/C=C/C(=O)NO)cc2)CC1 [Compound 38a, (S,E)-4-(3-(hydroxyamino)-3-oxoprop-1-en-1-yl)-N-((4-(prop-1-en-2-yl)cyclohex-1-en-1-yl)methyl)benzamide] | 167.2 to 167.6 | – | 1.00 | 60.1 | > 100 | 0.66 | 7.74

Reference: article PMC10254045, “Elaboration of the Effective Multi-Target Therapeutic Platform for the Treatment of Alzheimer’s Disease Based on Novel Monoterpene-Derived Hydroxamic Acids” (International Journal of Molecular Sciences, 2023)
